# In US9546151B2, “VMAT inhibitory compounds” (Oregon Health & Science University, priority 2014, dated 2017):
# How the values were obtained:
# [1] = base; cited from earlier work
# VMAT2 [2] = target: T1, VMAT2 (Homo sapiens, UniProt Q05940); conditions: high concentrations; cited from earlier work
# VMAT2 [3] = target: T1, VMAT2; conditions: transfected cells; Miller et al 2004; cited from earlier work
# DAT = DAT (Homo sapiens, UniProt Q01959); conditions: transfected cells; Miller et al 2004; cited from earlier work
# [4] = rats, lever press; Harrod et al 2001; cited from earlier work
# human 5HT2C receptor = target: T2, human 5HT2C receptor (Homo sapiens, UniProt P28335); experiment: h5HT2C receptors: [125I]DOI binding; conditions: read-out: Kd for [^125I] DOI at 5HT2C receptors; used in Cheng-Prusoff equation
# T2 construct: expressed in transfected cells; host or cells: HEK cells
# T2 sequence (P28335 33-458): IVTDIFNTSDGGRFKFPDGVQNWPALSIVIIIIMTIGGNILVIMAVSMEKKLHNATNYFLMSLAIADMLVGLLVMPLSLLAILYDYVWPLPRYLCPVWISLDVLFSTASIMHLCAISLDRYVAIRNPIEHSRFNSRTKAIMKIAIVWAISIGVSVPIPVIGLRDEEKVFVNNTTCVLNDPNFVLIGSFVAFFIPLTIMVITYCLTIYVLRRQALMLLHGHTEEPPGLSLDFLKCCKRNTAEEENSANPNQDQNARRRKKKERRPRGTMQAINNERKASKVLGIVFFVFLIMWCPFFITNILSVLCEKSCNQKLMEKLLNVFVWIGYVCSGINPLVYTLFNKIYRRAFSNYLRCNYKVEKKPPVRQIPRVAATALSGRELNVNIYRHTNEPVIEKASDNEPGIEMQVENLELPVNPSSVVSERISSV
# Description: The method was adapted from AR Knight et al, Naunyn-Schmeideberg's Arch Pharmacol 370, 114-123 (2004).
# Method: Human embryonic kidney cells expressing the human 5HT2A receptor (HEK-h5HT2A) or human 5HT2C receptor (HEK-h5HT2C) were used. The cells were grown until confluent on 15 cm plates. Media was removed, cells were washed with phosphate-buffered saline (PBS), scraped into 2 ml PBS and frozen at −20° C. until needed. Cell suspension was thawed, 10 ml assay buffer (50 mM Tris, pH 7.4 at 37° C., with 0.1% ascorbic acid and 5 mM CaCl2) was added per plate of cells, and polytronned at setting 6 for 5 sec. The homogenate was centrifuged at 15,500 rpm for 20 min. To minimize the residual 5HT concentration, the pellet was resuspended in buffer, polytronned, and centrifuged as above. The final pellet was resuspended in 2 ml buffer/plate of cells.
# The binding assay included 50 μl drug, 5HT or buffer, 50 μl cell homogenate, 50 μl [^125I]DOI (˜0.1 nM) and buffer in a final volume of 250 μl. Specific binding was defined as the difference between total binding and binding in the presence of 10 μM 5HT. The reaction was incubated for 1 hour at 37° C., and terminated by filtration through Wallac A filtermats presoaked in 0.05% polyethylenimine using a Tomtec 96-well harvester. Radioactivity remaining on filters was counted in a Wallac betaplate reader. IC50 values were calculated using GraphPad Prism. […]
# VMAT2 [5] = target: T1, VMAT2; conditions: background statements; cited from earlier work
# [6] = target: T3, recombinant human dopamine transporter (hDAT) (Homo sapiens, UniProt Q01959); experiment: [125I]RTI-55 binding, HEK-hDAT; conditions: used in Cheng-Prusoff equation
# T3 construct: expressed in transfected cells; host or cells: HEK cells
# Description: (§1) Standard methods of assessing [^3H]neurotransmitter uptake and [^125I]RTI-55 binding using HEK cell lines are described in Eshleman et al, J Pharmacol Exp Therap 289, 877-885 (1999), which is incorporated by reference herein and were as follows:
# (§2) Compounds were weighed and dissolved in DMSO to make a stock solution of 10 mM. An initial dilution to 50 μM in assay buffer or water for binding, or to 1 mM in assay buffer or water for uptake, was made. Subsequent dilutions were made with assay buffer supplemented with DMSO, maintaining a final concentration of 0.1% DMSO. Pipetting was conducted using a Biomek 2000 robotic workstation.
# (§3) Cells were grown to 100% confluence on 150 mm diameter tissue culture dishes and served as the tissue source. Cell membranes were prepared as follows. Medium was poured off the plate, and the plate was washed with 10 ml of calcium- and magnesium-free phosphate-buffered saline. Lysis buffer (10 ml; 2 mM HEPES with 1 mM EDTA) was added. After 10 min, lysed cells were scraped from plates, transferred into centrifuge tubes, and centrifuged at 30,000×g for 20 min. The supernatant fluid was removed, and the pellet was resuspended in 12-32 ml of sucrose (0.32 M) using a Polytron at setting 7 for 10 sec. The resuspension volume depended on the density of binding sites within a cell line and was chosen to reflect binding of 10% or less of the total radioactivity. […]
# [7] = target: T4, recombinant human norepinephrine transporter (hNET) (Homo sapiens, UniProt P23975); experiment: [125I]RTI-55 binding, HEK-hNET; conditions: used in Cheng-Prusoff equation
# T4 construct: expressed in transfected cells; host or cells: HEK cells
# Description: as §1, §2, §3
# [8] = target: T5, recombinant human serotonin transporter (hSERT) (Homo sapiens, UniProt P31645); experiment: [125I]RTI-55 binding, HEK-hSERT; conditions: used in Cheng-Prusoff equation
# T5 construct: expressed in transfected cells; host or cells: HEK cells
# Description: as §1, §2, §3
# T1 sequence (Q05940 whole entry, species assumed): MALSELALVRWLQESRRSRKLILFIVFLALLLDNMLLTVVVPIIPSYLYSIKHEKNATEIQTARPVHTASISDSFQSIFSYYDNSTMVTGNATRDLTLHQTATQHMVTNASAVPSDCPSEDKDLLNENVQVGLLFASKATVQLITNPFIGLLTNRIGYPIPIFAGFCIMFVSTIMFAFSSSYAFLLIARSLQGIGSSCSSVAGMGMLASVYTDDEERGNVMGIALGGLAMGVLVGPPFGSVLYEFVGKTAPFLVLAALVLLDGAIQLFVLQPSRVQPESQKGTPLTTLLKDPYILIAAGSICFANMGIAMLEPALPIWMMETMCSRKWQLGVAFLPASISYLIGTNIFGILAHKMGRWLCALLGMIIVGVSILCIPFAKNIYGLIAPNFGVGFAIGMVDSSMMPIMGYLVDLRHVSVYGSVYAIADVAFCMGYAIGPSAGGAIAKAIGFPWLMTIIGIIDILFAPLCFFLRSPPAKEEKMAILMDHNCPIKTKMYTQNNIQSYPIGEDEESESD
# T5 sequence (P31645 whole entry): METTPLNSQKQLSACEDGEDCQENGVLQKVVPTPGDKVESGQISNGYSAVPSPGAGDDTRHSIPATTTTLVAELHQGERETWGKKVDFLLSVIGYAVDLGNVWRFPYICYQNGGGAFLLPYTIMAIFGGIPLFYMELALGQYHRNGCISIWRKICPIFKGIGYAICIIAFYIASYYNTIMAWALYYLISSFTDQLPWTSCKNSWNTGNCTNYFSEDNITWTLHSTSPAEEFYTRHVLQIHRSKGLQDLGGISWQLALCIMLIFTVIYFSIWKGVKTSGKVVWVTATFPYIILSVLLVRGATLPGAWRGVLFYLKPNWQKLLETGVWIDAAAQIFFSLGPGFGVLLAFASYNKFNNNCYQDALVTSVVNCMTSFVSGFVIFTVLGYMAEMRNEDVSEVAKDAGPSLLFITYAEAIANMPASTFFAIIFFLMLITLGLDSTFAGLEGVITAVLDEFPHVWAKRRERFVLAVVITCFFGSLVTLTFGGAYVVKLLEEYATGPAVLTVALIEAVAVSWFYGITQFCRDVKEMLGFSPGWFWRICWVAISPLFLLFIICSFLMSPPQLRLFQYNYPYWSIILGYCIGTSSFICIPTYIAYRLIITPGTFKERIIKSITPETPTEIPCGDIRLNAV
# T4 sequence (P23975 whole entry): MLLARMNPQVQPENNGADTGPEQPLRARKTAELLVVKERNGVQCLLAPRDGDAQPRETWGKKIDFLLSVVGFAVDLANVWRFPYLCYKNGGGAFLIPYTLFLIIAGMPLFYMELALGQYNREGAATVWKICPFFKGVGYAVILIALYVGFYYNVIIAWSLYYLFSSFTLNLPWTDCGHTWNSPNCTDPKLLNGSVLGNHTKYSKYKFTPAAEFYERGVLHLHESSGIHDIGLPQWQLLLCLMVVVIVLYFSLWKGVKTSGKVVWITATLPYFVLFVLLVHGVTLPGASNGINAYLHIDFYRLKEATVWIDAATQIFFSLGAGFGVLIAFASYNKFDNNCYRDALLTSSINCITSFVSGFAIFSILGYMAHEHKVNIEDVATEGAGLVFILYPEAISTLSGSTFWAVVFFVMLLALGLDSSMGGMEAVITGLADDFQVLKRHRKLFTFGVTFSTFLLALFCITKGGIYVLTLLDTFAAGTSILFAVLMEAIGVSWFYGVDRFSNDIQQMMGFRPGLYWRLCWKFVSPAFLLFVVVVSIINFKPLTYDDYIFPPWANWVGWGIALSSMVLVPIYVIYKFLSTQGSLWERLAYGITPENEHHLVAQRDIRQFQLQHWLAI
# T3 sequence (Q01959 whole entry): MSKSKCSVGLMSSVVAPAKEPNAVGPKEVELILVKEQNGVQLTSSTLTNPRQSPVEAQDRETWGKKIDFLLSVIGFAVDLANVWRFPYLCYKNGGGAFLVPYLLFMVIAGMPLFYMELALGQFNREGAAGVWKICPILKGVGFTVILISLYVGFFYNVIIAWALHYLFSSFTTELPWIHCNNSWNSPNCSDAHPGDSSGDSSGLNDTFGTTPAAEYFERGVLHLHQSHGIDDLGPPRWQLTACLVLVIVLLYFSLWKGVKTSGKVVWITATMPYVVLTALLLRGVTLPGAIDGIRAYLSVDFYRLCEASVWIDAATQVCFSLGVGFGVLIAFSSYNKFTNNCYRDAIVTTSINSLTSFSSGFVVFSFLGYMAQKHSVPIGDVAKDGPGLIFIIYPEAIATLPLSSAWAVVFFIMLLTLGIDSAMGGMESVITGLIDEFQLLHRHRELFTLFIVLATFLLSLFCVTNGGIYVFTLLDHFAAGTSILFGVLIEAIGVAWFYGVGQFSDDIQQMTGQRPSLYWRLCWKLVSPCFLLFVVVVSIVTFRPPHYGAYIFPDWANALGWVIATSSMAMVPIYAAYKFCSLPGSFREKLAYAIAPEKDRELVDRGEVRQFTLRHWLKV
# Sequence of DAT (Q01959 whole entry, species assumed): as the sequence (Q01959 whole entry) above
smiles,measurement,setting,value
"CN[C@@H](C)Cc1ccccc1 [MA, Methamphetamine]",pKa,[1],9.8
same,concentration for inhibition of [^3H]DTBZ binding,VMAT2 [2],1.2 mM
"CN1[C@@H](CC(=O)c2ccccc2)CCC[C@H]1C[C@H](O)c1ccccc1 [lobeline, 2-((2R,6S)-6-((S)-2-Hydroxy-2-phenylethyl)-1-methylpiperidin-2-yl)-1-phenylethanone]",affinity at VMAT2,VMAT2 [3],4.3 µM
same,affinity at the DAT,DAT,5.4 µM
same,responding for intravenous MA or sucrose after pretreatment,[4],decreased responding to both acutely
COc1cc(CC(C)N)c(OC)cc1I (stereo not shown) [[^125I] DOI],Kd,human 5HT2C receptor,4.18 nM
O=C(c1ccc(F)cc1)C1CCN(CCn2c(=O)[nH]c3ccccc3c2=O)CC1 [Ketanserin],affinity for VMAT2 (in words),VMAT2 [5],high affinity
COC(=O)[C@H]1[C@@H](c2ccc(I)cc2)C[C@@H]2CC[C@H]1N2C [[^125I]RTI-55],Kd,[6],1.2 nM
same,Kd,[7],12.1 nM
same,Kd,[8],0.98 nM
